Data: patent US20250059171A1 (Hoffmann-La Roche Inc., priority 2021, published 2025)

Columns and labels:
SARS-CoV-2 3CLpro = SARS-CoV-2 3CLpro (Severe acute respiratory syndrome coronavirus 2, UniProt P0DTD1); test: biochemical
HCoV-229E 3CLpro = HCoV-229E 3CLpro (Human coronavirus 229E, UniProt P0C6X1); test: HCoV-229E 3CLpro inhibition assay (FRET); format: biochemical
MERS-CoV 3CLpro = MERS-CoV 3CLpro (Middle East respiratory syndrome-related coronavirus, UniProt K9N7C7); test: biochemical
SARS-CoV 3CLpro = SARS-CoV 3CLpro (Severe acute respiratory syndrome coronavirus, UniProt P0C6X7); test: biochemical

HCoV-229E 3CLpro, sequence (P0C6X1 2966-3267): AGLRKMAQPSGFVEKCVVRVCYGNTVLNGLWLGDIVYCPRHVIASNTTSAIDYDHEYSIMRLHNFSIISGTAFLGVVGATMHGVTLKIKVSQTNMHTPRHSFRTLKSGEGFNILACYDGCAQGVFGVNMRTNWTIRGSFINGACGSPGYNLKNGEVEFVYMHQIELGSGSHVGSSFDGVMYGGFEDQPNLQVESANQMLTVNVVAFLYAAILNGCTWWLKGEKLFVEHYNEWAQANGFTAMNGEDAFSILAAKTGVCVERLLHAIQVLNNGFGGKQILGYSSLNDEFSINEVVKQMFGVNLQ
MERS-CoV 3CLpro, sequence (K9N7C7 3248-3553): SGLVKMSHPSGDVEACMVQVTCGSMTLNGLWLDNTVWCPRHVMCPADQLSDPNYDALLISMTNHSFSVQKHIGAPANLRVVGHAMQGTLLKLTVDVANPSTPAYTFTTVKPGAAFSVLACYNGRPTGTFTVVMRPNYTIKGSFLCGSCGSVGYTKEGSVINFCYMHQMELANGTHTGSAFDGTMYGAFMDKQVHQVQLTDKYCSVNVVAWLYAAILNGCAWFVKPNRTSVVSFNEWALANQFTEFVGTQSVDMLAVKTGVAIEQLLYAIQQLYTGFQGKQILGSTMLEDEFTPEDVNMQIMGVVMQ

Row | Compound | IC50 (SARS-CoV-2 3CLpro) | IC50 (HCoV-229E 3CLpro) | IC50 (MERS-CoV 3CLpro) | IC50 (SARS-CoV 3CLpro)
1 | CC(C)(C)C[C@H](NC(=O)C(F)(F)F)C(=O)N1C[C@H]2[C@@H]([C@H]1C(=O)NN(C[C@@H]1CCNC1=O)C(=O)[C@H](F)Cl)C2(C)C [Example 66, N-[(1S)-1-[(1R,2S,5S)-2-[[[(2R)-2-chloro-2-fluoro-acetyl]-[[(3S)-2-oxopyrrolidin-3-yl]methyl]amino]carbamoyl]-6,6-dimethyl-3-azabicyclo[3.1.0]hexane-3-carbonyl]-3,3-dimethyl-butyl]-2,2,2-trifluoro-acetamide] | 0.01 µM | 0.035 µM | 0.141 µM | 0.022 µM
2 | CC1(C)[C@@H]2[C@@H](C(=O)NN(C[C@@H]3CCNC3=O)C(=O)[C@H](F)Cl)N(C(=O)[C@H](Cc3ccncc3)NC(=O)C(F)(F)F)C[C@@H]21 [Example 67, N-[(1S)-2-[(1R,2S,5S)-2-[[[(2R)-2-chloro-2-fluoro-acetyl]-[[(3S)-2-oxopyrrolidin-3-yl]methyl]amino]carbamoyl]-6,6-dimethyl-3-azabicyclo[3.1.0]hexan-3-yl]-2-oxo-1-(4-pyridylmethyl)ethyl]-2,2,2-trifluoro-acetamide] | 0.01 µM | 0.028 µM | 0.084 µM | 0.014 µM
3 | CC1([C@H](NC(=O)C(F)(F)F)C(=O)N2C[C@H]3[C@@H]([C@H]2C(=O)NN(C[C@@H]2CCNC2=O)C(=O)[C@H](F)Cl)C3(C)C)CC1 [Example 68, N-[(1S)-2-[(1R,2S,5S)-2-[[[(2R)-2-chloro-2-fluoro-acetyl]-[[(3S)-2-oxopyrrolidin-3-yl]methyl]amino]carbamoyl]-6,6-dimethyl-3-azabicyclo[3.1.0]hexan-3-yl]-1-(1-methylcyclopropyl)-2-oxo-ethyl]-2,2,2-trifluoro-acetamide] | 0.018 µM | 0.023 µM | 0.081 µM | 0.014 µM
4 | CSCC[C@H](NC(=O)C(F)(F)F)C(=O)N1C[C@H]2[C@@H]([C@H]1C(=O)NN(C[C@@H]1CCNC1=O)C(=O)[C@H](F)Cl)C2(C)C [Example 69, N-[(1S)-1-[(1R,2S,5S)-2-[[[(2R)-2-chloro-2-fluoro-acetyl]-[[(3S)-2-oxopyrrolidin-3-yl]methyl]amino]carbamoyl]-6,6-dimethyl-3-azabicyclo[3.1.0]hexane-3-carbonyl]-3-methylsulfanyl-propyl]-2,2,2-trifluoro-acetamide] | 0.011 µM | 0.053 µM | 0.249 µM | 0.028 µM
5 | CC(C)(C)[C@H](NC(=O)C(Cl)Cl)C(=O)N1C[C@@H]2CCC[C@@H]2[C@H]1C(=O)NN(C[C@@H]1CCNC1=O)C(=O)[C@H](F)Cl [Example 70, N-[(1S)-1-[(3S,3aS,6aR)-3-[[[(2R)-2-chloro-2-fluoro-acetyl]-[[(3S)-2-oxopyrrolidin-3-yl]methyl]amino]carbamoyl]-3,3a,4,5,6,6a-hexahydro-1H-cyclopenta[c]pyrrole-2-carbonyl]-2,2-dimethyl-propyl]-2,2-dichloro-acetamide] | 0.007 µM | 0.03 µM | 0.101 µM | 0.016 µM
6 | CC(C)(C)[C@H](NC(=O)C(F)(F)C(F)(F)F)C(=O)N1C[C@@H]2CCC[C@@H]2[C@H]1C(=O)NN(C[C@@H]1CCNC1=O)C(=O)[C@H](F)Cl [Example 71, N-[(1S)-1-[(3S,3aS,6aR)-3-[[[(2R)-2-chloro-2-fluoro-acetyl]-[[(3S)-2-oxopyrrolidin-3-yl]methyl]amino]carbamoyl]-3,3a,4,5,6,6a-hexahydro-1H-cyclopenta[c]pyrrole-2-carbonyl]-2,2-dimethyl-propyl]-2,2,3,3,3-pentafluoro-propanamide] | 0.007 µM | 0.019 µM | 0.041 µM | 0.01 µM
